Results: BindingDB's records for patent US8680132 (University of Michigan, 2014)

Molecular target: E3 ubiquitin-protein ligase Mdm2 (Homo sapiens, UniProt Q00987)
Assay: Fluorescence-polarization Binding Assay
Settings: pH 7.5

E3 ubiquitin-protein ligase Mdm2, sequence (Q00987 whole entry): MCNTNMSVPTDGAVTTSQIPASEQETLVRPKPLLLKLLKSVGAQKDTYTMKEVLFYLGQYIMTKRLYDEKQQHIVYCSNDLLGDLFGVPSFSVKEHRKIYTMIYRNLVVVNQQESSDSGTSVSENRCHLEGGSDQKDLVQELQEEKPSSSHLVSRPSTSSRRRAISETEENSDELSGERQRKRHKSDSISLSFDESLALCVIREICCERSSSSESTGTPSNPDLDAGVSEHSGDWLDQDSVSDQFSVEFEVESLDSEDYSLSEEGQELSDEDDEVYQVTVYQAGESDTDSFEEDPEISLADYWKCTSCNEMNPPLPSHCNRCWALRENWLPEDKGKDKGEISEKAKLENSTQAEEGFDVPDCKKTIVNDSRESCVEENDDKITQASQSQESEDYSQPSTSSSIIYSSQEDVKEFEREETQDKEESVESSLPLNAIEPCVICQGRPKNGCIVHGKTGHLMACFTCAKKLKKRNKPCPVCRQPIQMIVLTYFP

## O=C(NCC[C@H](O)CO)[C@@H]1N[C@H](CC2CCCCC2)[C@]2(C(=O)Nc3cc(Cl)c(F)cc32)[C@H]1c1cccc(Cl)c1
  IC50: < 1000 nM
